The values below come from ChEMBL document CHEMBL3822390, “Synthesis, characterization and anti-cancer activity of a peptide nucleolipid bioconjugate” (2016).

Holding throughout (format): functional
Assay [1] can be described thus: Cytotoxicity against human RPMI8226 cells assessed as cell growth at 2.13 uM after 48 hrs by SRB assay. As to conditions: RPMI-8226, 48 h, read-out: Activity.
The nature of assay [2]: Cytotoxicity against human SKOV3 cells assessed as cell growth at 2.13 uM after 48 hrs by SRB assay. Particulars: SK-OV-3, 48 h, read-out: Activity.
Assay [3] is described as follows: Cytotoxicity against human HCT116 cells assessed as cell growth at 2.13 uM after 48 hrs by SRB assay. Particulars: HCT-116, 48 h, read-out: Activity.
A further assay deals with MDA-MB-468. In words: Cytotoxicity against human MDA-MB-468 cells assessed as cell growth at 2.13 uM after 48 hrs by SRB assay. As to conditions: MDA-MB-468, 48 h, read-out: Activity.
Assay [4] can be described thus: Cytotoxicity against human HCT15 cells assessed as cell growth at 2.13 uM after 48 hrs by SRB assay. Particulars: HCT-15, 48 h, read-out: Activity.
Assay [5] has as its system NCI-H522. In words: Cytotoxicity against human NCI-H522 cells assessed as cell mortality at 2.13 uM after 48 hrs by SRB assay. As to conditions: NCI-H522, 48 h.
A short description of assay [6]: Cytotoxicity against human SF268 cells assessed as cell growth at 2.13 uM after 48 hrs by SRB assay. Particulars: SF-268, 48 h, read-out: Activity.
A further assay deals with CCRF-CEM. In words: Cytotoxicity against human CCRF-CEM cells assessed as cell growth at 2.13 uM after 48 hrs by SRB assay. As to conditions: read-out: Activity.
In assay [7] the test system is SK-MEL-28. The experiment in a line: Cytotoxicity against human SK-MEL-28 cells assessed as cell growth at 2.13 uM after 48 hrs by SRB assay. Particulars: SK-MEL-28, 48 h, read-out: Activity.
The nature of assay [8]: Cytotoxicity against human OVCAR4 cells assessed as cell growth at 2.13 uM after 48 hrs by SRB assay. Particulars: OVCAR-4, 48 h, read-out: Activity.
In assay [9] the test system is NCI-H522. The experiment in a line: Cytotoxicity against human NCI-H522 cells assessed as cell growth at 10 uM after 48 hrs by SRB assay. Particulars: NCI-H522, 48 h, read-out: Activity.
The nature of assay [10]: Cytotoxicity against human Caki1 cells assessed as cell growth at 10 uM after 48 hrs by SRB assay. As to conditions: CAKI-1, 48 h, read-out: Activity.
Assay [11] deals with SK-MEL-28. In words: Cytotoxicity against human SK-MEL-28 cells assessed as cell growth at 10 uM after 48 hrs by SRB assay. As to conditions: SK-MEL-28, 48 h, read-out: Activity.
In a further assay the test system is SK-MEL-5. The experiment in a line: Cytotoxicity against human SK-MEL-5 cells assessed as cell growth at 10 uM after 48 hrs by SRB assay. As to conditions: SK-MEL-5, 48 h, read-out: Activity.
Assay [12] can be described thus: Cytotoxicity against human SF268 cells assessed as cell growth at 10 uM after 48 hrs by SRB assay. Particulars: SF-268, 48 h, read-out: Activity.
A short description of assay [13]: Cytotoxicity against human UACC62 cells assessed as cell growth at 10 uM after 48 hrs by SRB assay. As to conditions: UACC-62, 48 h, read-out: Activity.
In a further assay the test system is MDA-MB-231. In words: Cytotoxicity against human MDA-MB-231 cells assessed as cell growth at 7.25 uM after 48 hrs by SRB assay. As to conditions: MDA-MB-231, 48 h, read-out: Activity.
A short description of assay [14]: Cytotoxicity against human OVCAR8 cells assessed as cell growth at 7.25 uM after 48 hrs by SRB assay. Particulars: OVCAR-8, 48 h, read-out: Activity.
A further assay deals with NCI-H23. The experiment in a line: Cytotoxicity against human NCI-H23 cells assessed as cell growth at 7.25 uM after 48 hrs by SRB assay. Particulars: NCI-H23, 48 h, read-out: Activity.
Assay [15] can be described thus: Cytotoxicity against human RXF393 cells assessed as cell growth at 7.25 uM after 48 hrs by SRB assay. As to conditions: RXF 393, 48 h, read-out: Activity.
For another assay, the system named is NCI-H226. The experiment in a line: Cytotoxicity against human NCI-H226 cells assessed as cell growth at 7.25 uM after 48 hrs by SRB assay. As to conditions: NCI-H226, 48 h, read-out: Activity.
Assay [16] concerns SK-MEL-28. The experiment in a line: Cytotoxicity against human SK-MEL-28 cells assessed as cell growth at 7.25 uM after 48 hrs by SRB assay. Particulars: SK-MEL-28, 48 h, read-out: Activity.
The subject of a further assay is SR. In words: Cytotoxicity against human SR cells assessed as cell growth at 7.25 uM after 48 hrs by SRB assay. Particulars: read-out: Activity.
In another assay the test system is U-251. The experiment in a line: Cytotoxicity against human U251 cells assessed as cell growth at 7.25 uM after 48 hrs by SRB assay. As to conditions: U-251, 48 h, read-out: Activity.

`CCCCCCCCCCCCCCCCNCCO[C@H]1C[C@H](n2cc(C)c(=O)[nH]c2=O)O[C@@H]1C(=O)NCCCC[C@H](NC(=O)[C@H](C)NC(=O)[C@H](CCCCN)NC(=O)[C@H](C)NC(=O)[C@H](CC(C)C)NC(=O)[C@H](CCCCN)NC(=O)[C@H](C)NC(=O)[C@H](CC(C)C)NC(=O)[C@H](CCCCN)NC(=O)[C@H](CCCCN)NC(=O)[C@H](C)NC(=O)[C@H](CC(C)C)NC(=O)[C@H](CCCCN)NC(=O)[C@H](C)NC(=O)[C@H](CC(C)C)NC(=O)[C@H](CCCCN)NC(=O)[C@@H](N)CC(=O)O)C(N)=O`: the growth at 2.13 µM came to 104% in [1]; 98.4% in assay [2]; 99.9% in [3]; 100% with MDA-MB-468; 104% in assay [4]; 100% in assay [6]. Besides, the values for the growth at 2.13 µM (in the assay with CCRF-CEM; with SK-MEL-28 [7]; in assay [8]) were 108%, 102% and 112%, respectively. Further, in the assay with NCI-H522 [5], the mortality at 2.13 µM is 11%.
In the case of `CC(C)C[C@H](NC(=O)[C@H](CCCCN)NC(=O)[C@H](C)NC(=O)[C@H](CC(C)C)NC(=O)[C@H](CCCCN)NC(=O)[C@H](CCCCN)NC(=O)[C@H](C)NC(=O)[C@H](CC(C)C)NC(=O)[C@H](CCCCN)NC(=O)[C@H](C)NC(=O)[C@H](CC(C)C)NC(=O)[C@H](CCCCN)NC(=O)[C@@H](N)CC(=O)O)C(=O)N[C@@H](C)C(=O)N[C@@H](CCCCN)C(=O)N[C@@H](C)C(=O)N[C@@H](CCCCN)C(N)=O`, the growth at 10 µM in the assay with NCI-H522 [9] worked out at 86.4%; in [10] it was 99.4%; in the assay on SK-MEL-28 [11], 104%; with SK-MEL-5, 101%; in [12], 94.7%; in assay [13], 104%.
As for `CCCCCCCCCCCCCCCC(=O)NCCCC[C@H](NC(=O)[C@H](C)NC(=O)[C@H](CCCCN)NC(=O)[C@H](C)NC(=O)[C@H](CC(C)C)NC(=O)[C@H](CCCCN)NC(=O)[C@H](C)NC(=O)[C@H](CC(C)C)NC(=O)[C@H](CCCCN)NC(=O)[C@H](CCCCN)NC(=O)[C@H](C)NC(=O)[C@H](CC(C)C)NC(=O)[C@H](CCCCN)NC(=O)[C@H](C)NC(=O)[C@H](CC(C)C)NC(=O)[C@H](CCCCN)NC(=O)[C@@H](N)CC(=O)O)C(N)=O`, the growth at 7.25 µM was 104% with MDA-MB-231; 96.4% in assay [14]; 104% in the assay on NCI-H23; 111% in [15]; 99.5% with NCI-H226; 106% in the assay with SK-MEL-28 [16]. In addition, the growth at 7.25 µM came out at 91.9% in the assay on SR and 91.3% in the assay with U-251.
